In experiment [1] the target is T1, VKOR (Homo sapiens, UniProt Q9BQB6).
T1 construct: from tissue; host or cells: patients on warfarin (in vivo); genomic DNA from whole blood
Put plainly: Warfarin sensitivity of VKOR (mGC11276) expressed in Sf9 insect cells. The class given is biochemical. On the procedure:
FIG. 4. VKOR activity was detected when mGC_11276 was expressed in Sf9 insect cells. ˜1×10^6 cells were used in this assay. […] Blank Sf9 cells served as a negative control and A549 cells as a reference.
siRNA transfected A549 cells were trypsinized and washed twice with cold PBS. 1.5×10^7 cells were taken for each VKOR assay. 200 μL buffer D (250 mM Na2HPO4—NaH2PO4, 500 mM KCI, 20% glycerol and 0.75% CHAPS, pH 7.4) was added to the cell pellet, followed by sonication of the cell lysate. For assays of solubilized microsomes, microsomes were prepared from 2×10^9 cells as described (Lin et al. (2002) “The putative vitamin K-dependent gamma-glutamyl carboxylase internal propeptide appears to be the propeptide binding site” J Biol Chem 277:28584-91); 10 to 50 μL of solubilized microsomes were used for each assay. Vitamin K epoxide was added to the concentration indicated in the figure legends and DTT was added to 4 mM to initiate the reaction. […] 500 μL hexane was added and the mixture was vortexed vigorously for 1 minute to extract the vitamin K and KO. After 5 minutes centrifugation, the upper organic layer was transferred to a 5-mL brown vial and dried with N2. 150 μL HPLC buffer, acetonitrile:isopropanol:water (100:7:2), was added to dissolve the vitamin K and KO and the sample was analyzed by HPLC on an A C-18 column (Vydac, cat#218TP54). […]

The target of experiment [2] is T1, VKOR. Put plainly: Correlation of VKOR gene SNPs with warfarin maintenance dose in patients. Type of experiment: in vivo. From the text: The most prevalent isoform of the VKOR gene is about 4 kb long, has three exons and encodes an enzyme of 163 amino acids with a mass of 18.4 kDa.
Subjects were obtained from the UNC Coagulation Clinic in the Ambulatory Care Center. Informed consent was obtained by a trained genetic counselor. Subjects not fluent in English were excluded because of the lack of translators and the requirement for consent.
Genomic DNAs were extracted from the whole blood of subjects using QIAamp DNA Blood Mini Kit (QIAGEN cat#51104). The DNA concentration was adjusted to 10 ng/μL.
Approximately 10 ng of DNA was used for polymerase chain reaction (PCR) assays. The primers used to amplify the VKOR gene were: Exon 1-5′ […] (SEQ ID NO:29) and Exon 1-3′ […] (SEQ ID NO:30) for the 5′-UTR and Exon 1 region; Exon 2-5′ […] (SEQ ID NO:31) and Exon 2-3′ […] (SEQ ID NO:32) for the Exon 2 region; and Exon 3-5′ […] (SEQ ID NO:33) and Exon 3-3′ […] (SEQ ID NO:34) for the Exon3 and 3′-UTR region. Automated high throughput capillary electrophoresis DNA sequencing was used for detecting SNPs in the VKOR gene.
The assay reagents for SNP genotyping were from the Assay-by-Design™ service (Applied Biosystems, cat#4332072). The primers and probes (FAM™ and VIC™ dye-labeled) were designed using Primer Express software and were synthesized in an Applied Biosystems synthesizer. The primer pairs for each SNP are located at the upstream/downstream position of the SNP site and can generate less than 100 bp length of a DNA fragment in the PCR reaction. The FAM™ and VIC™ dye-labeled probes were designed to cover the SNP sites with a length of 15-16 nt.
The 2× TaqMan™ Universal PCR Master Mix, No AmpErase UNG (Applied Biosystems, cat#4324018) was used in the PCR reactions. Forty cycles of real-time PCR were performed in an Opticon II (MJ Research) machine. There was a 10 minute 95° C. preheat followed by 92° C. for 15 sec, 60° C. for 1 min. and then a plate reading. The results were read according to the signal value of FAM and VIC dye.
The difference of average dose between different genotypes was compared by analysis of variance (ANOVA) using SAS version 8.0 (SAS, Inc., Cary, N.C.). A two-sided p value less than 0.05 was considered significant.
Each marker was first analyzed independently.
The three VKOR SNPs are located within 2 kb distance of one another and are expected to be closely linked.

T1 sequence (Q9BQB6 whole entry): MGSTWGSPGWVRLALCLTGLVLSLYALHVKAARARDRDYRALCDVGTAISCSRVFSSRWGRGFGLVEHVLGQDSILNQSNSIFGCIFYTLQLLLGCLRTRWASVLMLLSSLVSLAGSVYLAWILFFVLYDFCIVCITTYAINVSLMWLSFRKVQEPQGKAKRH

For the molecule `CC(=O)CC(c1ccccc1)c1c(O)c2ccccc2oc1=O` (stereo not shown) [warfarin], the “warfarin sensitivity of VKOR activity” value was “warfarin sensitive” at VKOR [1] (Sf9 cells transfected with mGC11276 cDNA) and “warfarin-sensitive” on VKOR [1] (microsomes from Sf9 cells expressing VKOR, 60 μM KO, 30° C., 15 minutes). Further, the average warfarin dose at VKOR [2] (patients heterozygous for vk2581, n=17) amounted to 35.19±3.73 mg per week; at VKOR [2] (patients heterozygous for vk3294, n=25), 41.68±4.92 mg per week; on VKOR [2] (patients heterozygous for vk4769, n=19) it was 44.48±4.80 mg per week; at VKOR [2] (patients homozygous for vk2581, n=15), 31.14±6.2 mg per week; at VKOR [2] (patients homozygous for vk3294, n=22), 47.73±2.75 mg per week; on VKOR [2] (patients homozygous for vk4769, n=12), 47.56±3.86 mg per week. For the same molecule, the average warfarin dose at VKOR [2] (patients with vk2581 wild type allele, n=26) amounted to 50.19±3.20 mg per week; at VKOR [2] (patients with vk4769 SNP wild type, n=27) it was 35.35±4.01 mg per week; at VKOR [2] (patients with wild-type vk3294 allele, n=11) it was 25.29±3.05 mg per week. For the same molecule, the warfarin dosage at VKOR [2] (patients with haplotype aaBBCC) came out at 25.29±3.05; at VKOR [2] (subjects with haplotype AAbbcc, n=7), 48.98±3.93.

Source of the values: patent publication US9441208B2, “Methods and compositions for producing vitamin K dependent proteins” (The University of North Carolina at Chapel Hill, priority 2003, dated 2016).
